Results published in US6514989B1, “Aromatic and heteroaromatic substituted 1,2,4-triazolo pyridine derivatives” (Hoffmann-La Roche Inc., priority 2001, dated 2003).

How the values were obtained:
[1] = target: T1, human adenosine A2a receptor (Homo sapiens, UniProt P29274); experiment: Human adenosine A2a receptor radioligand binding assay ([125I]-AB-MECA, CHO cell membranes); conditions: for Selectivity A1/A2a: ratio obtained by dividing KiHA1 by KiHA2A; for Ki: recombinant human A2a receptor expressed in CHO cells, Ki from IC50 by Cheng-Prussoff equation, read-out: hA2a Ki
T1 construct: expressed in transfected cells; host or cells: CHO cells, semliki forest virus expression system; membrane preparation
Description: Human Adenosine A2a Receptor
The gene encoding human adenosine A2a receptor was recombinantly introduced and expressed in chinese hamster ovary (CHO) cells using the semliki forest virus expression system. Cells were harvested, washed twice by centrifugation, homogenized and again washed by centrifugation. The final washed membrane pellet was suspended in a Tris (50 mM) buffer containing 120 mM NaCl, 5 mM KCl, 2 mM CaCl2 and 10 mM MgCl2 (pH 7.4) (buffer A). The [^125I]-AB-MECA ([N(6)-(4-amino-3-iodobenzyl)-5′-N-methylcarbamoyl-adenosine]; 0.05 nM) binding assay was carried out in 96-well a plates in the presence of 20 μg of membrane protein and 0.1 U adenosine deaminase in a final volume of […] of buffer A. Non-specific binding was defined using xanthine amine congener (XAC; 2 μM). Compounds were tested at 10 concentrations from 10 μM-0.3 nM. All assays were conducted in duplicate and repeated at least two times. Assay plates were incubated for 1 hour at room temperature before filtration through Whatman Unifilter GF/C 96-well filter plates (preincubated with 0.3% polyethyleneimine). Filters were washed 3 times with 0.3 ml of cold (4° C.) Tris (50 mM)—NaC […]
[…] 1 (120 mM) buffer (pH 7.4). Microscint 40 scintillation fluid (50 μl) was added to each well and the wells sealed. After gentle shaking for 20 min, plates were counted on a Packard Topcount scintillation counter. IC50 values were calculated using a non-linear curve fitting program and Ki values calculated using the Cheng-Prussoff equation.
(§1) In accordance with the invention, it has been shown that compounds of formula I have a high affinity toward the A2A receptor. In Table I below specific values of prepared compounds are described, Values of KiHA2A and KiHA1 are shown in Table I for compounds of formula 1. A low Ki value is indicative of a particular compound's high affinity toward a particular receptor and conversely a higher Ki value is indicative of a lower affinity for that compound toward a particular receptor. […] Generally speaking, compounds that have a higher HA1/HA2A ratio are able to give a substantially complete blockade of the HA2A receptor without substantially affecting the A1 receptor.

[2] = target: T2, human adenosine A1 receptor (Homo sapiens, UniProt P30542); experiment: Human adenosine A1 receptor radioligand binding assay ([3H]-DPCPX, SPA, CHO cell membranes); conditions: recombinant human A1 receptor expressed in CHO cells; [3H]-DPCPX 0.6 nM; Ki from IC50 by Cheng-Prussoff equation; read-out: hA1 Ki
T2 construct: expressed in transfected cells; host or cells: CHO cells, semliki forest virus expression system; membrane preparation
T2 sequence (P30542 1-326): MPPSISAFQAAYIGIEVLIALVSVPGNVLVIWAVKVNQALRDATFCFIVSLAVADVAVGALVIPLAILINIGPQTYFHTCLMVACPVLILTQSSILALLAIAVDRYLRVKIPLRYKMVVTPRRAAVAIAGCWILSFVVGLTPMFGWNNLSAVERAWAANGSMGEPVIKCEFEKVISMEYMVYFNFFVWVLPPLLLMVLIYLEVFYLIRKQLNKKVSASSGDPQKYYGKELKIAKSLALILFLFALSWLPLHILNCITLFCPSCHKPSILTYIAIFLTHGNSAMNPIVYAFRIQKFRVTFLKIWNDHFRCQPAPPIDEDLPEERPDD
Description: Human Adenosine A^1 Receptor
The gene encoding human adenosinie A1 receptor was recombinantly introduced and expressed in chinese hamster ovary (CHO) cells using the semliki forest virus expression system. Cells were harvested, washed twice by centrifugation, homogenized and again washed by centrifugation. The final washed membrane pellet was suspended in a Tris (50 mM) buffer containing 120 mM NaCl, 5 mM KCl, 2 mM CaCl2 and 10 mM MgCl2 (pH 7.4) (buffer A). The [^3H]-DPCPX (([propyl-3H]8-cyclopentyl-1,3-dipropyxanthine); 0.6 nM) binding assay was carried out in 96-well plates in the presence of 2.5 μg of membrane protein, 0.5 mg of Ysi-poly-1-lysine SPA beads and 0.1 U adenosine deaminase in a final volume of 200 μl of buffer A. Non-specific binding was defined using xanthine amine congener (XAC; 2 μM). Compounds were tested at 10 concentrations from 10 μM-0.3 nM. All assays were conducted in duplicate and repeated at least two times. Assay plates were incubated for 1 hour at room temperature before centrifugation and then bound ligand determined using a Packard Topcount scintillation counter. IC50 values were calculated using a non-linear curve fitting program and Ki values calculated using the Cheng-Prussoff equation.
as §1

T1 sequence (P29274 whole entry): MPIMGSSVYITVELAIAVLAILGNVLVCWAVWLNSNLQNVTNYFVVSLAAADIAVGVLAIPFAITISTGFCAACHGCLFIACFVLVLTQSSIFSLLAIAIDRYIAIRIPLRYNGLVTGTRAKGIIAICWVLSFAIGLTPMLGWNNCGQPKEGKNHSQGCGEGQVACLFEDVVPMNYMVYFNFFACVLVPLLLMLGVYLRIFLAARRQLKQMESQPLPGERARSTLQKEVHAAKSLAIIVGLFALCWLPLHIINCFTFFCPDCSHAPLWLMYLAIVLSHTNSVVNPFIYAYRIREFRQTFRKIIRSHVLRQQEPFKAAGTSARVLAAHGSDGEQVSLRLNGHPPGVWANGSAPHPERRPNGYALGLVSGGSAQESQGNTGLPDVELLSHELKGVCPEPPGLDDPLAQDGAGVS

Selectivity A1/A2a [1]	Ki [1] [nM]	Ki [2] [nM]	Structure (SMILES)
39.6	29.5	1170	COc1ccc(-c2ccc(Cl)s2)n2nc(NC(=O)c3ccc(C)s3)nc12 [Example 31, 5-Methyl-thiophene-2-carboxylic acid [5-(5-chloro-thiophen-2-yl)-8-methoxy-[1,2,4]triazolo[1,5-a]pyridin-2-yl]-amide]
36.5	143	5210	COc1ccc(-c2ccc(OC)c3nc(NC(=O)c4ccc(C)s4)nn23)cc1 [Example 28, 5-Methyl-thiophene-2-carboxylic acid [8-methoxy-5-(4-methoxy-phenyl) [1,2,4]triazolo[1,5-a]pyridin-2-yl]-amide]
19.5	134	2610	COc1ccc(-c2ccccc2F)n2nc(NC(=O)c3ccc(C)s3)nc12 [Example 24, 5-Methyl-thiophene-2-carboxylic acid [5-(2-fluoro-phenyl)-8-methoxy-[1,2,4]triazolo[1,5-a]pyridin-2-yl]-amide]
24.2	71.1	1720	COc1ccc(-c2ccsc2)n2nc(NC(=O)c3ccc(C)s3)nc12 [Example 29, 5-Methyl-thiophene-2-carboxylic acid (8-methoxy-5-thiophen-3-yl-[1,2,4]triazolo[1,5-a]pyridin-2-yl)-amide]
12.7	165	2090	COc1ccc(-c2cccc(Cl)c2)n2nc(NC(=O)c3ccc(C)s3)nc12 [Example 25, 5-Methyl-thiophene-2-carboxylic acid [5-(3-chloro-phenyl)-8-methoxy-[1,2,4]triazolo[1,5-a]pyridin-2-yl]-amide]
24.6	229	5640	COc1ccc(-c2ccccc2F)n2nc(NC(=O)c3ccc(F)cc3)nc12 [Example 32, 4-Fluoro-N-[5-(2-fluorophenyl)-8-methoxy-[1,2,4]triazolo[1,5-a]pyridin-2-yl]-benzamide]
24.6	201	4940	COc1cccc(C(=O)Nc2nc3c(OC)ccc(-c4cccs4)n3n2)c1 [Example 19, 3-Methoxy-N-(8-methoxy-5-thiophen-2-yl-[1,2,4]triazolo[1,5-a]pyridin-2-yl)-benzamide]
16.5	107	1760	COc1cccc(-c2ccc(OC)c3nc(NC(=O)c4ccc(C)s4)nn23)c1 [Example 27, 5-Methyl-thiophene-2-carboxylic acid [8-methoxy-5-(3-methoxy-phenyl)-[1,2,4]triazolo[1,5-a]pyridin-2-yl]-amide]
11.1	256	2860	COc1ccc(-c2ccc(Cl)cc2)n2nc(NC(=O)c3ccc(C)s3)nc12 [Example 26, 5-Methyl-thiophene-2-carboxylic acid [5-(4-chloro-phenyl)-8-methoxy-[1,2,4]triazolo[1,5-a]pyridin-2-yl]-amide]
11.2	133	1490	CCOc1cccc(-c2ccc(OC)c3nc(NC(=O)c4ccc(F)cc4)nn23)c1 [Example 34, N-[5-(3-Ethoxy-phenyl)-8-methoxy-[1,2,4]triazolo[1,5-a]pyridin-2-yl]-4-fluoro-benzamide]
24.2	136	3300	CCc1ccc(C(=O)Nc2nc3c(OC)ccc(-c4cccs4)n3n2)cc1 [Example 18, 4-Ethyl-N-(8-methoxy-5-thiophen-2-yl-[1,2,4]triazolo[1,5-a]pyridin-2-yl)-benzamide]

Second part, the compound before the results:

Structure (SMILES)	Selectivity A1/A2a [1]	Ki [1] [nM]	Ki [2] [nM]
COc1ccc(C(=O)Nc2nc3c(OC)ccc(-c4cccs4)n3n2)cc1 [Example 16, 4-Methoxy-N-(8-methoxy-5-thiophen-2-yl-[1,2,4]triazolo[1,5-a]pyridin-2-yl)-benzamide]	14.2	238	3380
COc1ccc(-c2ccccc2)n2nc(NC(=O)c3ccc(F)cc3)nc12 [Example 4, 4-Fluoro-N-(8-methoxy-5-phenyl-[1,2,4]triazolo[1,5-a]pyridin-2-yl)-benzamide]	19.6	114	2240
COc1ccc(-c2cccs2)n2nc(NC(=O)c3cccc(Cl)c3)nc12 [Example 14, 3-Chloro-N-(8-methoxy-5-thiophen-2-yl-[1,2,4]triazolo[1,5-a]pyridin-2-yl)-benzamide]	17.4	142	2480
COc1ccc(-c2ccccc2)n2nc(NC(=O)c3cccc(Br)c3)nc12 [Example 8, 3-Bromo-N-(8-methoxy-5-phenyl-[1,2,4]triazolo[1,5-a]pyridin-2-yl)-benzamide]	21.1	136	2880
COc1ccc(-c2ccccc2)n2nc(NC(=O)c3ccccc3Cl)nc12 [Example 5, 2-Chloro-N-(8-methoxy-5-phenyl-[1,2,4]triazolo[1,5-a]pyridin-2-yl)-benzamide]	7.3	258	1870
COc1ccc(C(=O)Nc2nc3c(OC)ccc(-c4ccccc4)n3n2)cc1 [Example 7, 4-Methoxy-N-(8-methoxy-5-phenyl-[1,2,4]triazolo[1,5-a]pyridin-2-yl)-benzamide]	20.8	227	4710
COc1ccc(-c2ccccc2)n2nc(NC(=O)c3cccc(Cl)c3)nc12 [Example 6, 3-Chloro-N-(8-methoxy-5-phenyl-[1,2,4]triazolo[1,5-a]pyridin-2-yl)-benzamide]	15.8	181	2870
COc1cccc(C(=O)Nc2nc3c(OC)ccc(-c4ccccc4)n3n2)c1 [Example 11, 3-Methoxy-N-(8-methoxy-5-phenyl-[1,2,4]triazolo[1,5-a]pyridin-2-yl)-benzamide]	23.4	159	3710
COc1ccc(-c2cccs2)n2nc(NC(=O)c3ccccc3Cl)nc12 [Example 13, 2-Chloro-N-(8-methoxy-5-thiophen-2-yl-[1,2,4]triazolo[1,5-a]pyridin-2-yl)-benzamide]	9.8	230	2250
COc1ccc(-c2ccccc2)n2nc(NC(=O)c3ccc(Br)cc3)nc12 [Example 9, 4-Bromo-N-(8-methoxy-5-phenyl-[1,2,4]triazolo[1,5-a]pyridin-2-yl)-benzamide]	22.4	102	2290
COc1ccc(-c2cccs2)n2nc(NC(=O)c3ccccc3)nc12 [Example 12, N-(8-Methoxy-5-thiophen-2-yl-[1,2,4]triazolo[1,5-a]pyridin-2-yl)-benzamide]	19.3	112	2150
